Among the data in PubChem BioAssay (NCI) are GI50 and TGI values, retold here.

Some test systems named below: LOX IMVI melanoma; NCI-H23 lung; HOP-92 NSCLC; SNB-75 CNS; MOLT-4 leukemia; HOP-62 NSCLC; OVCAR-8 ovarian; SK-MEL-5 melanoma; SK-MEL-28 melanoma; CAKI-1 renal.
Holding throughout (assay): NCI tumour cell line growth inhibition, 48 h

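Compound exposure: 48 hours, 5 concentrations, 96-well plates. GI50 is the concentration that inhibits growth by half. TGI is the concentration that stops growth completely.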

In the case of `COC(=O)c1c2c(c(C)[n+]([O-])c1C)C(=O)C(NCc1cccc(OC)c1)=CC2=O`, the GI50 is 2.36 µM with LOX IMVI melanoma; 1.84 µM in the experiment on NCI-H23 lung; 2.75 µM in the experiment on HOP-92 NSCLC; 3.03 µM in the experiment with SNB-75 CNS; 2.39 µM in the experiment with MOLT-4 leukemia; 3.07 µM in the experiment with HOP-62 NSCLC. In addition, the GI50 in the experiment on OVCAR-8 ovarian is 2.52 µM; with SK-MEL-5 melanoma it was 1.2 µM; in the experiment on SK-MEL-28 melanoma it was 4.6 µM; with CAKI-1 renal, 2.79 µM. In addition, the TGI in the experiment with LOX IMVI melanoma came to 6.86 µM; in the experiment with NCI-H23 lung, 4.41 µM; in the experiment on HOP-92 NSCLC, 6.57 µM; with SNB-75 CNS, 12.9 µM; in the experiment on MOLT-4 leukemia, 6.67 µM; in the experiment with HOP-62 NSCLC, 25.3 µM. The TGI in the experiment with OVCAR-8 ovarian stood at 10.3 µM; with SK-MEL-5 melanoma it was 2.47 µM; in the experiment on SK-MEL-28 melanoma it was 18.2 µM; with CAKI-1 renal, 10.3 µM.

With `COc1cc(/C=C2\CC3C4CC=C5C[C@@H](N6CCCC6)CC[C@]5(C)C4CC[C@]3(C)[C@H]2OC(C)=O)ccc1OCCN1CCCCC1` (stereo not given in full), the GI50 with LOX IMVI melanoma was 1.03 µM; in the experiment with NCI-H23 lung, 1.68 µM; in the experiment with HOP-92 NSCLC it was 0.257 µM; in the experiment on SNB-75 CNS it was 2.56 µM; in the experiment on MOLT-4 leukemia, 0.036 µM; in the experiment with HOP-62 NSCLC, 1.49 µM. Also, the GI50 in the experiment on OVCAR-8 ovarian is 1.8 µM; with SK-MEL-5 melanoma, 1.53 µM; in the experiment on SK-MEL-28 melanoma it was 2.31 µM; in the experiment with CAKI-1 renal, 1.95 µM. Moreover, the TGI was determined as 2.57 µM with LOX IMVI melanoma; 3.14 µM in the experiment on NCI-H23 lung; 1.77 µM in the experiment on HOP-92 NSCLC; 5.03 µM in the experiment on SNB-75 CNS; 0.638 µM with MOLT-4 leukemia; 2.87 µM in the experiment with HOP-62 NSCLC. The TGI in the experiment on OVCAR-8 ovarian stood at 3.42 µM; in the experiment on SK-MEL-5 melanoma it was 2.87 µM; in the experiment with SK-MEL-28 melanoma, 4.8 µM; in the experiment on CAKI-1 renal it was 3.95 µM.

As to `CN(C)c1nc(N(C)C)n2nc(-c3ccccc3[N+](=O)[O-])nc2n1`, the TGI with LOX IMVI melanoma, in the experiment with NCI-H23 lung, in the experiment on HOP-92 NSCLC, in the experiment on SNB-75 CNS, in the experiment on MOLT-4 leukemia and in the experiment with HOP-62 NSCLC was greater than 100 µM in each case. In addition, the TGI in the experiment with OVCAR-8 ovarian, in the experiment with SK-MEL-5 melanoma, with SK-MEL-28 melanoma and in the experiment with CAKI-1 renal was greater than 100 µM in each case.

Consider `CC1=Nc2c([nH]c(=S)[nH]c2=O)NC(c2ccc(Cl)c(Cl)c2)C1` (stereo not given), for which the TGI in the experiment on LOX IMVI melanoma was 40.3 µM; in the experiment with NCI-H23 lung it was 40.2 µM; with HOP-92 NSCLC, greater than 100 µM; in the experiment on SNB-75 CNS, greater than 100 µM; in the experiment on MOLT-4 leukemia, greater than 100 µM; in the experiment with HOP-62 NSCLC, greater than 100 µM. Further, the TGI is 38.2 µM in the experiment on OVCAR-8 ovarian, greater than 60.7 µM with SK-MEL-5 melanoma, 36.7 µM with SK-MEL-28 melanoma and greater than 100 µM with CAKI-1 renal.

As to `CC(F)(F)c1cc(F)ccc1-c1sc2cc(O)ccc2c1Oc1ccc(/C=C/C(=O)O)cc1`, the GI50 in the experiment on LOX IMVI melanoma was 6.96 µM; with NCI-H23 lung, 15.2 µM; in the experiment on HOP-92 NSCLC, 11.1 µM; with SNB-75 CNS, 3.52 µM; in the experiment on MOLT-4 leukemia, 10.3 µM; in the experiment with HOP-62 NSCLC, 9.03 µM. Further, the GI50 is 12.2 µM in the experiment with OVCAR-8 ovarian, 4.05 µM with SK-MEL-5 melanoma, 5.79 µM in the experiment with SK-MEL-28 melanoma and 6.26 µM with CAKI-1 renal. For the same molecule, the TGI is 21.9 µM in the experiment with LOX IMVI melanoma; 37.4 µM in the experiment on NCI-H23 lung; 27.3 µM in the experiment on HOP-92 NSCLC; 19.8 µM with SNB-75 CNS; 50 µM in the experiment with MOLT-4 leukemia; 26.8 µM in the experiment with HOP-62 NSCLC. The TGI with OVCAR-8 ovarian turned out to be 69.1 µM; in the experiment with SK-MEL-5 melanoma, 15.3 µM; in the experiment with SK-MEL-28 melanoma it was 18.9 µM; with CAKI-1 renal it was 20.2 µM.

For `O=C(Nc1cccc2cccnc12)c1ccc(N2C(=O)[C@@H]3[C@H](C2=O)[C@@H]2C=C[C@H]3C2)cc1`, the GI50 was 31.8 µM in the experiment with LOX IMVI melanoma; 23.5 µM with NCI-H23 lung; 15.5 µM with HOP-92 NSCLC; greater than 44.2 µM in the experiment with SNB-75 CNS; 22.1 µM in the experiment on MOLT-4 leukemia; 36.7 µM in the experiment with HOP-62 NSCLC. Moreover, the GI50 was 26 µM in the experiment with OVCAR-8 ovarian, 13.4 µM in the experiment with SK-MEL-5 melanoma, 35.2 µM in the experiment on SK-MEL-28 melanoma and 21 µM in the experiment on CAKI-1 renal. Further, the TGI in the experiment on LOX IMVI melanoma is greater than 100 µM; in the experiment on NCI-H23 lung, greater than 100 µM; in the experiment on HOP-92 NSCLC, greater than 94.3 µM; in the experiment on SNB-75 CNS, greater than 100 µM; in the experiment with MOLT-4 leukemia, greater than 66.6 µM; in the experiment on HOP-62 NSCLC it was greater than 100 µM. The TGI in the experiment with OVCAR-8 ovarian was greater than 100 µM; in the experiment with SK-MEL-5 melanoma it was 29.6 µM; in the experiment on SK-MEL-28 melanoma, greater than 100 µM; with CAKI-1 renal, greater than 100 µM.

With `O=C(c1ccco1)c1c(C(F)(F)F)nc2cc(C(F)(F)F)ccc2[n+]1[O-]`, the GI50 with LOX IMVI melanoma is 48.1 µM; in the experiment with NCI-H23 lung it was 48.4 µM; in the experiment with HOP-92 NSCLC, 16.5 µM; with SNB-75 CNS it was 16.6 µM; in the experiment on MOLT-4 leukemia, greater than 100 µM; with HOP-62 NSCLC, 22.9 µM. Besides, the GI50 with OVCAR-8 ovarian was 31.8 µM; in the experiment on SK-MEL-5 melanoma it was greater than 100 µM; in the experiment on SK-MEL-28 melanoma, greater than 100 µM; in the experiment with CAKI-1 renal it was 19.7 µM. The TGI in the experiment with LOX IMVI melanoma is greater than 100 µM; in the experiment with NCI-H23 lung, greater than 100 µM; in the experiment with HOP-92 NSCLC, 68.8 µM; with SNB-75 CNS, 42.7 µM; in the experiment with MOLT-4 leukemia, greater than 100 µM; in the experiment with HOP-62 NSCLC, greater than 100 µM. Moreover, the TGI is greater than 100 µM in the experiment on OVCAR-8 ovarian, greater than 100 µM in the experiment on SK-MEL-5 melanoma, greater than 100 µM in the experiment on SK-MEL-28 melanoma and 58.8 µM with CAKI-1 renal.

Turning to `O=C(O)c1ccc(N=Nc2cc(S(=O)(=O)O)c3cccnc3c2O)cc1`, the TGI in the experiment on LOX IMVI melanoma, in the experiment on NCI-H23 lung, with HOP-92 NSCLC, in the experiment with SNB-75 CNS, in the experiment with MOLT-4 leukemia and in the experiment on HOP-62 NSCLC was greater than 100 µM in each case. Besides, the TGI with OVCAR-8 ovarian, in the experiment with SK-MEL-5 melanoma, in the experiment on SK-MEL-28 melanoma and in the experiment with CAKI-1 renal was greater than 100 µM each time.

`CC12CCc3ccccc3C1=Nc1ccccc12` (stereo not given): the TGI was greater than 100 µM in the experiment with LOX IMVI melanoma; greater than 100 µM in the experiment on NCI-H23 lung; 54 µM in the experiment with HOP-92 NSCLC; greater than 100 µM in the experiment with SNB-75 CNS; 58.5 µM in the experiment with MOLT-4 leukemia; greater than 100 µM with HOP-62 NSCLC. The TGI in the experiment on OVCAR-8 ovarian was greater than 100 µM; in the experiment with SK-MEL-5 melanoma, 30.4 µM; with SK-MEL-28 melanoma, greater than 100 µM; in the experiment on CAKI-1 renal, 51.6 µM.
